Reference: article PMC7495481, “Sequence specificity analysis of the SETD2 protein lysine methyltransferase and discovery of a SETD2 super-substrate” (Communications Biology, 2020)

How the values were obtained:
Type in all cases: biochemical
[1] = target: T1, SETD2 (Homo sapiens, UniProt Q9BYW2); experiment: Peptide SPOT array methylation of H3K36 (29–43) variants, super-substrate design (Fig. 2a)
T1 construct: SETD2 catalytic SET domain (amino acids 1347–1711, UniProt No: Q9BYW2); made in house; host or cells: E. coli
T1 sequence (Q9BYW2 1347-1711): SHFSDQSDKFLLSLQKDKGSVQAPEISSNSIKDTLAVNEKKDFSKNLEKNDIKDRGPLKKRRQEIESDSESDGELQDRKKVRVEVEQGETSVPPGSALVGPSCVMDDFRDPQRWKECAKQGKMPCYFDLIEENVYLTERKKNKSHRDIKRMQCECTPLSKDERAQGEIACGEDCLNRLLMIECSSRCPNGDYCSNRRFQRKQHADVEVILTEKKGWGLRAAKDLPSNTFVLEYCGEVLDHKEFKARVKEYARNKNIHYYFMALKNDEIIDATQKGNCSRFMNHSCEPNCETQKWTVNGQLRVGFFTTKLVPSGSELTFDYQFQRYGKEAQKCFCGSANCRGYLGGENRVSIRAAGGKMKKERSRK
From the text: Based on these observations, we aimed to explore, if better substrates than H3K36 can be designed for SETD2. We synthesized peptide SPOT arrays including H3K36 (29–43) as a positive control and the H3K36A mutant as a negative control, in which up to 5 combined mutations were systematically introduced that converted the original H3K36 residues into residues that are more favored (Fig. 2a and Supplementary Table 1). This peptide array was methylated by SETD2 as described above and the methylation signal was captured by autoradiography.
Fig. 2 Design of an optimized SETD2 peptide substrate and analysis of its methylation. a Variants of the H3K36 (29–43) peptide containing up to five mutations (Supplementary Table 1) were synthesized on a cellulose membrane and methylated by SETD2. The signal of the transferred radioactive methyl groups was detected by autoradiography. Spots A1 and B15 contain the H3K36 sequence, A2 and B16 the H3K36A peptide. Two films with different exposure times are shown to visualize weaker methylated spots as well. b Comparison of the methylation of purified super-substrate (ssK36) and the H3K36 peptides. […] Methylation reactions were conducted using 20 µM peptide and 6 µM enzyme. The lower panels display autoradiography films after different exposure times allowing to compare the methylation levels of the different samples. For comparison, different dilutions of the methylated ssK36 were loaded as indicated. c Time course of ssK36 peptide methylation determined under single turnover conditions using 5 µM substrate and 6 µM enzyme. […] The gels with the radioactive ssK36 (5 µl loaded per well) and H3K36 peptides (20 µl loaded per well) were exposed together to the same x-ray film. […] An enlargement of the H3K36 data with adjusted y-axis scale is shown in Supplementary Fig. 3d.
Peptide arrays containing fifteen amino acid long peptides were synthesized using the SPOT synthesis method[48] with an Autospot peptide array synthesizer (Intavis AG, Köln, Germany). After synthesis, the obtained membranes were pre-incubated in methylation buffer (20 mM Tris/HCl pH 9, 0.01% Triton X-100, 10 mM DTT, 1.5 mM MgCl2) for 5 min on a shaker. Thereafter, the membranes were incubated in methylation buffer supplemented with 0.76 µM radioactively labeled AdoMet (PerkinElmer) and 3–6 µM SETD2 enzyme for 60 min on a shaker. After methylation, the membranes were washed 5 times for 5 min in wash buffer (100 mM NH4HCO3, 1% SDS) and incubated in amplify NAMP100V (GE Healthcare) for 5 min. This was followed by the exposure of the membranes to a hyperfilm^TM high performance autoradiography (GE Healthcare) film at −80 °C in the dark. The films were developed with an Optimax Typ TR machine after different exposue times. For quantification the signal intensities were measured with the Phoretix^TM software and analyzed with Microsoft Excel.

[2] = target: T1, SETD2; experiment: Methylation of purified ssK36 and H3K36 peptides, Tricine gel autoradiography; conditions: 20 µM peptide, 6 µM SETD2, 0.76 µM AdoMet, 3 h, 25 °C; densitometry, three independent experiments, ± SD
From the text: To compare the methylation rates of the H3K36 and super-substrate peptides directly, purified ssK36 and H3K36 were methylated by SETD2, resolved on a Tricine gel and the methylation activity captured by autoradiography (Fig. 2b). To allow direct comparison of the methylation levels of both substrates, methylated ssK36 was loaded in different dilutions on the same gel.
The H3K36 (27–43) and the H3K36M (27–43) peptides were purchased from Intavis AG (Köln, Germany) and the ssK36 peptide (29–43) and the ssK36M peptide (29–43) were from Innovative Peptide Solutions (Berlin, Germany). If not indicated otherwise, peptide methylation reactions were performed using 20 µM peptide and 6 µM SETD2 in 20 µl methylation buffer supplemented with 0.76 µM radioactive labeled AdoMet (PerkinElmer) for 3 h at 25 °C. The reactions were halted by the addition of Tricine-SDS-PAGE loading buffer and incubation for 5 min at 95 °C. Afterward the samples were separated by Tricine-SDS-PAGE, which was followed by the incubation of the gel in amplify NAMP100V (GE Healthcare) for 45 min on a shaker and drying of the gel for 2 h at 55 °C in vacuum. The signals of the transferred radioactive labeled methyl groups were detected by autoradiography using a hyperfilm^TM high performance autoradiography film (GE Healthcare) at −80 °C in the dark. […]

[3] = target: T1, SETD2; experiment: Time courses of methylation of ssK36 and H3K36 compared (initial slopes); conditions: 20 µM substrate, 6 µM enzyme; two experiments, average ± SEM
From the text: Fig. 2 Design of an optimized SETD2 peptide substrate and analysis of its methylation. a Variants of the H3K36 (29–43) peptide containing up to five mutations (Supplementary Table 1) were synthesized on a cellulose membrane and methylated by SETD2. The signal of the transferred radioactive methyl groups was detected by autoradiography. Spots A1 and B15 contain the H3K36 sequence, A2 and B16 the H3K36A peptide. Two films with different exposure times are shown to visualize weaker methylated spots as well. b Comparison of the methylation of purified super-substrate (ssK36) and the H3K36 peptides. […] Methylation reactions were conducted using 20 µM peptide and 6 µM enzyme. […]
The H3K36 (27–43) and the H3K36M (27–43) peptides were purchased from Intavis AG (Köln, Germany) and the ssK36 peptide (29–43) and the ssK36M peptide (29–43) were from Innovative Peptide Solutions (Berlin, Germany). […] The signals of the transferred radioactive labeled methyl groups were detected by autoradiography using a hyperfilm^TM high performance autoradiography film (GE Healthcare) at −80 °C in the dark. […]
Time courses of ssK36 methylation were analyzed by fitting to an exponential reaction progress curve (Eq. 1). Initial rates of single turnover reactions were determined using the first derivative of eq. […]

fold stronger methylation of ssK36 than H3K36 ([1]; densitometric analysis of 5 pairs of H3K36 and ssK36 spots on independent arrays, ± SD): 70 ± 10 fold
fold more efficient methylation of ssK36 than wild type H3K36 peptide [2]: 50 ± 4 fold
fold higher initial slope for ssK36 methylation vs H3K36 [3]: 290 ± 70 fold
Sequence: APRFGGVKRPNRYRP [ssK36, super-substrate peptide with four amino acid exchanges (A31R, T32F, K37R, H39N)]
peptide array methylation of H3K36 variants (in words) ([1]; SPOT array, 0.76 µM radioactive AdoMet, 3–6 µM SETD2, 60 min, pH 9, autoradiography): one of the most strongly methylated peptides
